Data on two compounds can be found in US9393326B2, “Compositions and methods for multimodal imaging” (University Health Network, priority 2005, dated 2016).

Series [1] in a line: In vitro CT imaging in multimodal phantom. Conditions: 120 kV, 300 mA. The protocol:
In vitro contrast efficacy was determined by imaging the liposome formulated signal modifying agents at varying concentrations in both CT and MR, using a multimodal imaging phantom. To minimize the amount of agent leakage from liposomes, in vitro imaging scans were performed immediately following the removal of free agents by dialysis. […] The mean attenuation in Hounsfield units was measured using circular regions of interest (ROI). Attenuation values were then plotted against signal modifying agent concentrations using linear regression analysis.

Series [2] can be described thus: In vitro MR imaging in multimodal phantom. From the text: The phantom and the vials were filled to capacity to minimize air-induced susceptibility artefacts. Scans were produced using a T1 weighted spin echo sequence with a repetition time (TR) of 400 ms, an echo time (TE) of 9 ms, a slice thickness of 3 mm, a FOV of 1 9.9×19.9 cm and an image carrier of 256×192 pixels. The relative signal intensity was taken over the ROI. Solutions of free signal modifying agents were also imaged as controls in both modalities.

Series [3] is described as follows: In vitro relaxometry (r1, r2). The conditions noted are these: 20° C., 1.5 T, versus gadolinium concentration (free iohexol: [I]). It is filed as physicochemical. The protocol: All in vitro relaxometry measurements were performed at 20° C. on a 1.5 Tesla, 20-cm-bore superconducting magnet (Nalorac Cryogenics Corp., Martinez, Calif.) controlled by an SMIS spectroscopy console (SMIS, Surrey, UK). The T1 relaxation time data were acquired using an inversion recovery (IR) sequence (45) with 35 inversion recovery time (TI) values logarithmically spaced from 1 to 32000 ms. A 10 second delay was given between each acquisition and the next inversion pulse. […] For every measurement 2000 even echoes were sampled with 8 averages. The effects of any residual transverse magnetization following the off-resonance irradiation was removed by phase-cycling the π/2 pulse (−x/x).
The T1 relaxation data were analyzed assuming mono-exponential behaviour
[formula] where S is the signal observed, M0 is the magnetization at equilibrium, t is time and T1 is the longitudinal relaxation time). All T2 decay data were plotted to a one component T2 model with a Gaussian fit on a logarithmic time scale. The r1 and r2 values were calculated from linear regression analysis of 1/T1 and 1/T2 relaxation rates versus gadolinium concentration.

Regarding `CC(=O)N(CC(O)CO)c1c(I)c(C(=O)NCC(O)CO)c(I)c(C(=O)NCC(O)CO)c1I` (stereo not shown) [Free Iohexol, iohexyl], the “CT attenuation (linear regression)” value in series [1] was 29.0±0.4 HU/(mg of iodine) in 1 mL of HBS. The “average differential signal intensity in MR relative to water” value in series [2] (iodine 0 to 17 mmol/L) was 1.8±7.1 SI. In addition, the r1 amounted to 0.00 ± 0.00 s^−1mmol^−1L in series [3] and 0.0 s^−1mmol^−1L in series [3] (listed as iohexyl). Further, the r2 in series [3] amounted to 0.01 ± 0.01 s^−1mmol^−1L.
With `CC(O)CN1CCN(CC(=O)[O-])CCN(CC(=O)[O-])CCN(CC(=O)[O-])CC1.[Gd+3]` (stereo not shown) [Free Gadoteridol, gadolinium complex of 10-(2-hydroxy-propyl)-1,4,7,10-tetraazacyclododecane-1,4,7-triacetic acid], the “CT attenuation (linear regression)” value in series [1] is 11.1±0.5 HU/(mg of gadolinium) in 1 mL of HBS. Besides, the “peak differential signal intensities with respect to water in MR” value in series [2] (gadolinium 1 to 9 mmol/L) was over 600 SI. In addition, in series [3], the r1 was 5.14 ± 0.06 s^−1mmol^−1L and the r2 is 6.21 ± 0.08 s^−1mmol^−1L. Besides, in series [3] (listed as unencapsulated gadoteridol), the r1 is 5.1 s^−1mmol^−1L.
